Where two headings read alike, the source gives them in different places. Marks after values point to notes of the source that are not given here.
How the values were obtained:
[1] = system: foliar fungal diseases of plants; assay type: in vivo; design: key to disease control grading, […] (VINE): 4: no disease; 3: trace −5% of disease on untreated plants; key to disease control grading, PUCCINIA RECONDITA (WHEAT) / disease control grading, VENTURIA INAEQUALIS (APPLE) / disease control grading, CERCOSPORA ARACHIDICOLA (PEANUT) / disease control grading, PH[…] (TOMATO) / disease control grading, P[…] (RICE): 4: no disease; 3: trace −5% of disease on untreated plants; 6-25% of disease on untreated plants; 1: 26-59% of disease on untreated plants; 60-100% of disease on untreated plants; conditions: for disease control grading, CERCOSPORA ARACHIDICOLA (PEANUT): Cercospora arachidicola on peanut; for disease control grading, P[…] (RICE): P[…] on rice; for disease control grading, PH[…] (TOMATO): Ph[…] on tomato; for disease control grading, PUCCINIA RECONDITA (WHEAT): Puccinia recondita on wheat; for disease control grading, VENTURIA INAEQUALIS (APPLE): Venturia inaequalis on apple; for disease control grading, […] (VINE): […] on vine
Erysiphe graminis = test: Foliar fungal disease test on Erysiphe graminis, plants inoculated 24 hours before treatment (Table V); assay type: in vivo; design: key: 4: no disease; 3: trace −5% of disease on untreated plants; 6-25% of disease on untreated plants; 1: 26-59% of disease on untreated plants; 60-100% of disease on untreated plants
[2] = applied to soil (roots) and foliage one or two days before inoculation
[3] = plants inoculated 24 hours before treatment

| SMILES | disease control grading, CERCOSPORA ARACHIDICOLA (PEANUT) [1, 2] | disease control grading, P[…] (RICE) [1, 2] | disease control grading, PH[…] (TOMATO) [1, 2] | disease control grading, PUCCINIA RECONDITA (WHEAT) [1, 2] | disease control grading, VENTURIA INAEQUALIS (APPLE) [1, 2] | disease control grading, […] (VINE) [1, 2] | disease control grading, ERYSIPHE GRAMINIS (BARLEY) (Erysiphe graminis; [3]) | disease control grading, CERCOSPORA ARACHIDICOLA (PEANUT) ([1]; 25 ppm foliar spray only) | disease control grading, P[…] (RICE) ([1]; 25 ppm foliar spray only) | disease control grading, PH[…] (TOMATO) ([1]; 25 ppm foliar spray only) | disease control grading, PUCCINIA RECONDITA (WHEAT) ([1]; 25 ppm foliar spray only) | disease control grading, VENTURIA INAEQUALIS (APPLE) ([1]; 25 ppm foliar spray only) | disease control grading, […] (VINE) ([1]; 25 ppm foliar spray only) | disease control grading, ERYSIPHE GRAMINIS (BARLEY) (Erysiphe graminis; 25 ppm foliar spray only) |
| --- | --- | --- | --- | --- | --- | --- | --- | --- | --- | --- | --- | --- | --- | --- |
| CO/C=C(/C(=O)OC)c1ccccc1COc1ccccc1Cl [157 (Table I)] | 4 | 4 | 3 (trace −5% of disease on untreated plants) | 4 | 4 | 4 | 4 | – | – | – | – | – | – | – |
| CO/C=C(/C(=O)OC)c1ccccc1COc1ccc(C#N)cc1 [38 (Table I)] | 4 | 0 (60-100% of disease on untreated plants) | 4 | 4 | 4 | 4 | 4 | – | – | – | – | – | – | – |
| CO/C=C(/C(=O)OC)c1ccccc1COc1cccc([N+](=O)[O-])c1 [161 (Table I)] | 3 (trace −5% of disease on untreated plants) | 0 (60-100% of disease on untreated plants) | 1 (26-59% of disease on untreated plants) | 3 (trace −5% of disease on untreated plants) | 4 | 4 | 3 (trace −5% of disease on untreated plants) | – | – | – | – | – | – | – |
| CO/C=C(/C(=O)OC)c1ccccc1CSc1ccccc1 [1 (Table II)] | 0 (60-100% of disease on untreated plants) | 3 (trace −5% of disease on untreated plants) | 4 | 4 | 4 | 4 | 2 (6-25% of disease on untreated plants) | – | – | – | – | – | – | – |
| CO/C=C(/C(=O)OC)c1ccccc1COc1cccc(Oc2cccc(Br)c2)c1 [183 (Table I)] | 4 | 3 (trace −5% of disease on untreated plants) | 4 | 0 (60-100% of disease on untreated plants) | 4 | 4 | 4 | – | – | – | – | – | – | – |
| CO/C=C(/C(=O)OC)c1ccccc1COc1cccc(I)c1 [25 (Table I)] | 4 | 2 (6-25% of disease on untreated plants) | 3 (trace −5% of disease on untreated plants) | 4 | 4 | 4 | 4 | – | – | – | – | – | – | – |
| CO/C=C(/C(=O)OC)c1ccccc1COc1ccc(Cl)cc1Cl [43 (Table I)] | 4 | 4 | 4 | 4 | 4 | 4 | 4 | – | – | – | – | – | – | – |
| CO/C=C(/C(=O)OC)c1ccccc1COc1cccc(-c2cccc(OC)c2)c1 [172 (Table I)] | 4 | 0 (60-100% of disease on untreated plants) | 4 | 4 | 4 | 4 | 4 | – | – | – | – | – | – | – |
| CO/C=C(/C(=O)OC)c1ccccc1COc1cccc(F)c1 [155 (Table I)] | 4 | 4 | 4 | 4 | 4 | 4 | 4 | – | – | – | – | – | – | – |
| CO/C=C(/C(=O)OC)c1ccccc1COc1cccc(C(F)(F)F)c1 [168 (Table I)] | 3 (trace −5% of disease on untreated plants) | 4 | 4 | 4 | 4 | 4 | 4 | – | – | – | – | – | – | – |
| CO/C=C(/C(=O)OC)c1ccccc1COc1cccc(Br)n1 [176 (Table I)] | – | 4 | 4 | 4 | 4 | 4 | 4 | – | – | – | – | – | – | – |
| CO/C=C(/C(=O)OC)c1ccccc1COc1cccc(Oc2ccccc2)n1 [185 (Table I)] | 4 | 4 | 4 | 4 | 2 (6-25% of disease on untreated plants) | 4 | 4 | – | – | – | – | – | – | – |
| CO/C=C(/C(=O)OC)c1ccccc1COc1c(Cl)cccc1Cl [44 (Table I)] | 3 (trace −5% of disease on untreated plants) | 2 (6-25% of disease on untreated plants) | 3 (trace −5% of disease on untreated plants) | 4 | 4 | 4 | 4 | – | – | – | – | – | – | – |
| CCN(CC)c1cccc(OCc2ccccc2/C(=C\OC)C(=O)OC)c1 [169 (Table I)] | 4 | 0 (60-100% of disease on untreated plants) | 4 | 3 (trace −5% of disease on untreated plants) | 4 | 4 | 1 (26-59% of disease on untreated plants) | – | – | – | – | – | – | – |
| CO/C=C(/C(=O)OC)c1ccccc1COc1cccc(C(F)(F)F)n1 [177 (Table I)] | – | 4 | 4 | 4 | 4 | 4 | 4 | – | – | – | – | – | – | – |
| CCCN(Cc1ccccc1/C(=C\OC)C(=O)OC)c1ccccc1 [4 (Table III)] | – | – | – | – | – | – | – | 0* (60-100% of disease on untreated plants) | 0* (60-100% of disease on untreated plants) | 0* (60-100% of disease on untreated plants) | 0* (60-100% of disease on untreated plants) | 3* (trace −5% of disease on untreated plants) | 1* (26-59% of disease on untreated plants) | 0* (60-100% of disease on untreated plants) |
| CO/C=C(/C(=O)OC)c1ccccc1COc1ccc2ccccc2n1 [149 (Table I)] | – | 4 | 4 | 4 | 4 | 4 | 4 | – | – | – | – | – | – | – |
